Measured values reported in US9884868B2, “TGF-beta inhibitors” (Rigel Pharmaceuticals, Inc., priority 2015, dated 2018).

target: HIS-TGF-βR1 T204D (Homo sapiens (Human), UniProt P36897, T204D); experiment: HTRF probe displacement assay with HIS-TGF-βR1 T204D; details: read-out: TGFbr1 IC50; HTRF probe displacement, 1 nM HIS-TGF-βR1 T204D, 1 hour at room temperature
Sequence (P36897 34-503 T204D): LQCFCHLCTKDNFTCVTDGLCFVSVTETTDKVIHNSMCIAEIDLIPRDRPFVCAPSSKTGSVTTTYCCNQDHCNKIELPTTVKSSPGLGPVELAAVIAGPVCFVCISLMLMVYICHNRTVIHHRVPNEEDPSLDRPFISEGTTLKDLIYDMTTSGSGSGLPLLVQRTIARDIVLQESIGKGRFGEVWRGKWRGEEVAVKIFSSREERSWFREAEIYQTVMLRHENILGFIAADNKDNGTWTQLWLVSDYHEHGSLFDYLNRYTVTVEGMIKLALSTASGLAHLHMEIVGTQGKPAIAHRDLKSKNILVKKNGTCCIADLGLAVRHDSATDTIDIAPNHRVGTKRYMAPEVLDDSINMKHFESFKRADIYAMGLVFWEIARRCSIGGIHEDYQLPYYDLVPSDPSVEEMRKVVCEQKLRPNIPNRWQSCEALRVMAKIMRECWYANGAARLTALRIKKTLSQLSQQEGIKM

| SMILES | IC50 [nM] |
| --- | --- |
| NC(=O)c1cnc2ccc(-c3c(-c4ccc(F)c(Cl)c4)ncn3C3CC(F)C3)nn12 (centres unmarked) [141′, 6-(4-(3-chloro-4-fluorophenyl)-1-(3-fluorocyclobutyl)-1H-imidazol-5-yl)imidazo[1,2-b]pyridazine-3-carboxamide] | 0.8 |
| NC(=O)c1cnc2ccc(-c3c(-c4ccc(F)c(Cl)c4)ncn3CCCO)nn12 [142′, 6-(4-(3-chloro-4-fluorophenyl)-1-(3-hydroxypropyl)-1H-imidazol-5-yl)imidazo[1,2-b]pyridazine-3-carboxamide] | 1.6 |
| NC(=O)c1cnc2ccc(-c3c(-c4ccc(F)c(Cl)c4)ncn3C[C@@H]3CCCO3)nn12 [145′, (S)-6-(4-(3-chloro-4-fluorophenyl)-1-((tetrahydrofuran-2-yl)methyl)-1H-imidazol-5-yl)imidazo[1,2-b]pyridazine-3-carboxamide] | 2.2 |
| NC(=O)c1cnc2ccc(-c3c(-c4ccc(F)c(Cl)c4)ncn3C3CCOC3)nn12 (centres unmarked) [146′, 6-(4-(3-chloro-4-fluorophenyl)-1-(tetrahydrofuran-3-yl)-1H-imidazol-5-yl)imidazo[1,2-b]pyridazine-3-carboxamide] | 1.7 |
| CC(C)CCn1cnc(-c2ccc(F)c(Cl)c2)c1-c1ccc2ncc(C(N)=O)n2n1 [148′, 6-(4-(3-chloro-4-fluorophenyl)-1-isopentyl-1H-imidazol-5-yl)imidazo[1,2-b]pyridazine-3-carboxamide] | 1.1 |
| NC(=O)c1cnc2ccc(-c3c(-c4ccc(F)c(Cl)c4)ncn3CCCCl)nn12 [149′, 6-(4-(3-chloro-4-fluorophenyl)-1-(3-chloropropyl)-1H-imidazol-5-yl)imidazo[1,2-b]pyridazine-3-carboxamide] | 1.7 |
| NC(=O)c1cnc2ccc(-c3c(-c4ccc(F)c(Cl)c4)ncn3CCC3CCC3)nn12 [150′, 6-(4-(3-chloro-4-fluorophenyl)-1-(2-cyclobutylethyl)-1H-imidazol-5-yl)imidazo[1,2-b]pyridazine-3-carboxamide] | 1.2 |
| CC(F)(F)Cn1cnc(-c2ccc(F)c(Cl)c2)c1-c1ccc2ncc(C(N)=O)n2n1 [151′, 6-(4-(3-chloro-4-fluorophenyl)-1-(2,2-difluoropropyl)-1H-imidazol-5-yl)imidazo[1,2-b]pyridazine-3-carboxamide] | 0.6 |
| NC(=O)c1cnc2ccc(-c3c(-c4ccc(F)cc4)ncn3C3CCCC3)cn12 [159′, 6-(1-cyclopentyl-4-(4-fluorophenyl)-1H-imidazol-5-yl)imidazo[1,2-a]pyridine-3-carboxamide] | 0.8 |
| CC(C1CC1)n1cnc(-c2ccc(F)cc2)c1-c1ccc2ncc(C(N)=O)n2c1 (centres unmarked) [167′, 6-(1-(1-cyclopropylethyl)-4-(4-fluorophenyl)-1H-imidazol-5-yl)imidazo[1,2-a]pyridine-3-carboxamide] | 0.6 |
| NC(=O)c1cnc2ccc(-c3c(-c4ccc(F)cc4)ncn3C3CCC3)cn12 [172′, 6-(1-cyclobutyl-4-(4-fluorophenyl)-1H-imidazol-5-yl)imidazo[1,2-a]pyridine-3-carboxamide] | 0.5 |
| Cn1cnc(-c2ccc(F)c(Cl)c2)c1-c1ccc2nccn2c1 [181′, 6-(4-(3-chloro-4-fluorophenyl)-1-methyl-1H-imidazol-5-yl)imidazo[1,2-a]pyridine] | 6 |
| Fc1ccc(-c2ncn(CCC(F)(F)F)c2-c2ccc3nccn3c2)cc1Cl [182′, 6-(4-(3-chloro-4-fluorophenyl)-1-(3,3,3-trifluoropropyl)-1H-imidazol-5-yl)imidazo[1,2-a]pyridine] | 50.8 |
| FCCCn1cnc(-c2ccc(F)c(Cl)c2)c1-c1ccc2nccn2c1 [183′, 6-(4-(3-chloro-4-fluorophenyl)-1-(3-fluoropropyl)-1H-imidazol-5-yl)imidazo[1,2-a]pyridine] | 21.6 |
| Fc1ccc(-c2ncn(C3CC(F)(F)C3)c2-c2ccc3nccn3c2)cc1Cl [184′, 6-(4-(3-chloro-4-fluorophenyl)-1-(3,3-difluorocyclobutyl)-1H-imidazol-5-yl)imidazo[1,2-a]pyridine] | 54.5 |
| Fc1ccc(-c2ncn([C@@H]3CCC(F)(F)C3)c2-c2ccc3nccn3c2)cc1Cl [185′, (R)-6-(4-(3-chloro-4-fluorophenyl)-1-(3,3-difluorocyclopentyl)-1H-imidazol-5-yl)imidazo[1,2-a]pyridine] | 30.1 |

The remaining lines, values ahead:

| IC50 [nM] | SMILES |
| --- | --- |
| 1.1 | CC(CO)n1cnc(-c2ccc(F)cc2)c1-c1ccc2ncc(C(N)=O)n2c1 (centres unmarked) [152′, 6-(4-(4-fluorophenyl)-1-(1-hydroxypropan-2-yl)-1H-imidazol-5-yl)imidazo[1,2-a]pyridine-3-carboxamide] |
| 2.3 | CC(CCO)n1cnc(-c2ccc(F)cc2)c1-c1ccc2ncc(C(N)=O)n2c1 (centres unmarked) [154′, 6-(4-(4-fluorophenyl)-1-(4-hydroxybutan-2-yl)-1H-imidazol-5-yl)imidazo[1,2-a]pyridine-3-carboxamide] |
| 5.5 | C[C@@H](O)Cn1cnc(-c2ccc(F)cc2)c1-c1ccc2ncc(C(N)=O)n2c1 [155′, (R)-6-(4-(4-fluorophenyl)-1-(2-hydroxypropyl)-1H-imidazol-5-yl)imidazo[1,2-a]pyridine-3-carboxamide] |
| 4.3 | CC(O)CCn1cnc(-c2ccc(F)cc2)c1-c1ccc2ncc(C(N)=O)n2c1 (centres unmarked) [156′, 6-(4-(4-fluorophenyl)-1-(3-hydroxybutyl)-1H-imidazol-5-yl)imidazo[1,2-a]pyridine-3-carboxamide] |
| 0.8 | NC(=O)c1cnc2ccc(-c3c(-c4ccc(F)cc4)ncn3CC3CCC3)cn12 [157′, 6-(1-(cyclobutylmethyl)-4-(4-fluorophenyl)-1H-imidazol-5-yl)imidazo[1,2-a]pyridine-3-carboxamide] |
| 2.7 | C[C@H](O)Cn1cnc(-c2ccc(F)cc2)c1-c1ccc2ncc(C(N)=O)n2c1 [158′, (S)-6-(4-(4-fluorophenyl)-1-(2-hydroxypropyl)-1H-imidazol-5-yl)imidazo[1,2-a]pyridine-3-carboxamide] |
| 0.8 | CCn1cnc(-c2ccc(F)cc2)c1-c1ccc2ncc(C(N)=O)n2c1 [160′, 6-(1-ethyl-4-(4-fluorophenyl)-1H-imidazol-5-yl)imidazo[1,2-a]pyridine-3-carboxamide] |
| 6.7 | NC(=O)c1cnc2ccc(-c3c(-c4ccc(F)cc4)ncn3C[C@H](O)CO)cn12 [161′, (S)-6-(1-(2,3-dihydroxypropyl)-4-(4-fluorophenyl)-1H-imidazol-5-yl)imidazo[1,2-a]pyridine-3-carboxamide] |
| 1.9 | NC(=O)c1cnc2ccc(-c3c(-c4ccc(F)cc4)ncn3CCCF)cn12 [162′, 6-(4-(4-fluorophenyl)-1-(3-fluoropropyl)-1H-imidazol-5-yl)imidazo[1,2-a]pyridine-3-carboxamide] |
| 5.7 | NC(=O)c1cnc2ccc(-c3c(-c4ccc(F)cc4)ncn3C[C@@H](O)CO)cn12 [164′, (R)-6-(1-(2,3-dihydroxypropyl)-4-(4-fluorophenyl)-1H-imidazol-5-yl)imidazo[1,2-a]pyridine-3-carboxamide] |
| 4.9 | NC(=O)c1cnc2ccc(-c3c(-c4ccc(F)cc4)ncn3CCCO)cn12 [165′, 6-(4-(4-fluorophenyl)-1-(3-hydroxypropyl)-1H-imidazol-5-yl)imidazo[1,2-a]pyridine-3-carboxamide] |
| 9.1 | CC(C)(O)Cn1cnc(-c2ccc(F)cc2)c1-c1ccc2ncc(C(N)=O)n2c1 [166′, 6-(4-(4-fluorophenyl)-1-(2-hydroxy-2-methylpropyl)-1H-imidazol-5-yl)imidazo[1,2-a]pyridine-3-carboxamide] |
| 1.1 | CC(C)Cn1cnc(-c2ccc(F)cc2)c1-c1ccc2ncc(C(N)=O)n2c1 [168′, 6-(4-(4-fluorophenyl)-1-isobutyl-1H-imidazol-5-yl)imidazo[1,2-a]pyridine-3-carboxamide] |
| 0.5 | CC(C)n1cnc(-c2ccc(F)cc2)c1-c1ccc2ncc(C(N)=O)n2c1 [170′, 6-(4-(4-fluorophenyl)-1-isopropyl-1H-imidazol-5-yl)imidazo[1,2-a]pyridine-3-carboxamide] |
| 8.4 | NC(=O)c1cnc2ccc(-c3c(-c4ccc(F)cc4)ncn3C(CO)CO)cn12 [171′, 6-(1-(1,3-dihydroxypropan-2-yl)-4-(4-fluorophenyl)-1H-imidazol-5-yl)imidazo[1,2-a]pyridine-3-carboxamide] |
| 6.6 | NC(=O)c1cnc2ccc(-c3c(-c4ccc(F)cc4)ncn3C3COC3)cn12 [173′, 6-(4-(4-fluorophenyl)-1-(oxetan-3-yl)-1H-imidazol-5-yl)imidazo[1,2-a]pyridine-3-carboxamide] |
| 0.6 | CCC(C)n1cnc(-c2ccc(F)cc2)c1-c1ccc2ncc(C(N)=O)n2c1 (centres unmarked) [174′, 6-(1-(sec-butyl)-4-(4-fluorophenyl)-1H-imidazol-5-yl)imidazo[1,2-a]pyridine-3-carboxamide] |
| 2 | CC(CO)n1cnc(-c2ccc(F)cc2)c1-c1ccc2ncc(C(N)=O)n2c1 (centres unmarked) [175′, 6-(4-(4-fluorophenyl)-1-(1-hydroxypropan-2-yl)-1H-imidazol-5-yl)imidazo[1,2-a]pyridine-3-carboxamide] |
| 5.2 | CC(O)Cn1cnc(-c2ccc(F)cc2)c1-c1ccc2ncc(C(N)=O)n2c1 (centres unmarked) [176′, 6-(4-(4-fluorophenyl)-1-(2-hydroxypropyl)-1H-imidazol-5-yl)imidazo[1,2-a]pyridine-3-carboxamide] |
| 1.1 | CCCn1cnc(-c2ccc(F)cc2)c1-c1ccc2ncc(C(N)=O)n2c1 [177′, 6-(4-(4-fluorophenyl)-1-propyl-1H-imidazol-5-yl)imidazo[1,2-b]pyridine-3-carboxamide] |
| 1.9 | CCOCCn1cnc(-c2ccc(F)cc2)c1-c1ccc2ncc(C(N)=O)n2c1 [178′, 6-(1-(2-ethoxyethyl)-4-(4-fluorophenyl)-1H-imidazol-5-yl)imidazo[1,2-a]pyridine-3-carboxamide] |
| 2.2 | CCC(CO)n1cnc(-c2ccc(F)cc2)c1-c1ccc2ncc(C(N)=O)n2c1 (centres unmarked) [179′, 6-(4-(4-fluorophenyl)-1-(1-hydroxybutan-2-yl)-1H-imidazol-5-yl)imidazo[1,2-a]pyridine-3-carboxamide] |
